Results reported in patent US7767240B2, “Microbiological control in poultry processing” (priority 2001, dated 2010).

Columns and labels:
Assay type in all cases: cell-based
[1] = tested on: Escherichia coli field strain; assay: Chill water bacteria reduction (Example 2)
Method: The trial events and experimental design used were as follows: • a) For all treatments a total of 190 birds were processed in a normal fashion. Each treatment involved use of 10 birds. • b) A warm (100° F.) bath was prepared containing 5×10^4 DelMarVa (Delaware-Maryland farm area) field Escherichia coli stain bacteria per mL. At least 200 mL of total bath fluid was provided for each bird. • c) All birds (both controls and treated) were randomly immersed into the warm bath. Both the inside and outside carcass areas were immersed to assure complete coverage. • d) Each separate chill tank water solution (normal tap water adjusted pH to 8.5, ice added to produce temperatures of <45° F.) contained 2×10^3 per mL bacteria. • e) The chill tank water solutions (at least 750 mL each) were be prepared for each disinfecting treatment, and birds were immersed for a period of 1.5 hours. • f) Each 10 minutes during the 1.5 hour chilling period, the birds were completely lifted out of solution and then reimersed in the solution. After the 1.5 hour chilling period, the birds were taken from the chill water and drained for 30 seconds, then promptly (within 5 minutes) placed into a sterile whole bird stomacher bag containing 400 mL diluent (Butterfield's Phosphate Diluent) bacteria collection. • g) Diluent (400 mL) was added to each carcass contained in a sterile stomacher bag while making sure to pour the diluent into the inside of the abdominal cavity. The carcass was rinsed inside and out with a rocking motion for one minute (ca. 35 RPM). […] After the fluids had been diluted, 0.1 mL of fluid was be placed on a MacConkey agar plate and bacteria counts determined. In cases where the goal of a 25-250 count on the plate was not achieved, another dilution and replating were conducted. • j) After all carcasses for each treatment had been dipped, water sample bacteria were determined. • k) Total bacteria per bird were calculated. […]

total aerobic bacteria = assay: Whole bird total aerobic bacteria, chill tank soup at pH 7, 8, 9 (Example 3); conditions: 50 birds per treatment
Method: (§1) This group of tests was conducted to determine the effect of Clorox® bleach, Aquatize® biocide, and 1,3-dibromo-5,5-dimethylhydantoin (DBDMH) on carcass bacteria (Escherichia coli field strain) residual after 1,5-hour in a chill tank “soup”. Tests were conducted with soups at pH 7, pH 8 and pH 9 (adjusted by trisodium phosphate) for whole bird bacteria counts. Tests at pH 8 were conducted for individual bacteria counts.
(§2) In general the tests involved normal processing of 56-day-old birds and immersing the carcasses first in a warm bath containing 10^4 per mL Escherichia coli, 10^4 per mL Salmonella enteritidis, 10^4 per mL Pseudomonas aeruginosa, 10^4 per mL Campylobacter jejuni, and 10^4 per mL spoilage bacteria each from […] strains (Listeria monocytogenes and Shigella sonnei). The carcasses were then immersed in a chill tank “soup”, containing normal organic fluids (blood, fat, skin, and meat particles) and containing the microbiocides on the test.
The procedure used for whole bird wash sampling was as follows: • 1. All samples were kept at ≦50 degrees Fahrenheit following collection. • 2. Microbiological analyses of samples began within 24 hours of sample collection. • 3. Information on the individual sample identification, date of collection, time of collection (phase during shift), treatment group and location of sample point were recorded on each sample bottle. • 4. At each defined sample time, carcasses were taken individually from the processing line wearing latex or rubber gloves. The gloves were rinsed with alcohol between each collection. • 5. Any excess fluid was drained off from the carcass. Each individual carcass was transferred to a sterile stomacher bag. • 6. To each carcass contained in the sterile stomacher bag, 400 mL of Butterfield's Phosphate Diluent (BPD) was added while making sure to pour the BPD into the inside of the carcass cavity. The carcass was rinsed inside and out with a rocking motion for one minute (ca. 35 RPM). This was best done by grasping the broiler carcass with one hand and the closed top of the bag with the other then rocking with a reciprocal motion in a 18-24 inch arc, assuring that all surfaces (interior and exterior of the carcass) were rinsed. • 7. The rinse solutions from each stomacher bag was transferred into the sample bottles, taking care to ensure that the information on the date of collection, time of collection (phase during shift), treatment group and location of sampler point matched that of the sample. • 8. Each bottle was sealed with parafilm and placed into a styrene container with crushed or dry ice or frozen freezer packs for overnight delivery to a testing laboratory. • 9. All filled styrene containers were held in a chilled (not below freezing) area until within 1 to 2 hours of courier collection for shipment.
Aerobic plate counts—Counting rules according to BAM 8th ed., Chapter 3.
In greater detail the trial events and experimental design used in this group of tests were as follows: • a) Test microorganisms used were: • Escherichia coli ATCC 11229 • Pseudomonas aeruginosa ATCC 15442 • Salmonella enteritidis ATCC 13076 • Shigella sonnei ATCC 9290 • Listeria monocytogenes ATCC 7644 • Campylobacter jejuni ATCC 29428 • b) Test Procedure: All test strains were grown individually at 35° C. for 24 hours in the media specified in Table 12. Cells were harvested by centrifugation at 10,000×g for 10 minutes and washed twice with Butterfield's Phosphate Buffer (BPB of pH 7.2). Cells were resuspended in BPB to obtain a cell suspension of approximately 1.0×10^8 CFU/mL for each microorganism. The target inoculum levels were approximately 10^6 CFU/mL in the final test solutions. In the cases of S. enteritidis and P. aeruginosa the species were washed by pouring into prepared sterile centrifuge tubes with cheesecloth filters. […]

[2] = tested on: S. sonnei, L. monocytogenes, E. coli, S. enteritidis, P. aeruginosa, C. jejuni; assay: Mean % reduction from control over the six organisms (Example 3); conditions: pH 8
Method: as §1, §2
The procedure used for whole bird wash sampling was as follows: • 1. All samples were kept at ≦50 degrees Fahrenheit following collection. • 2. Microbiological analyses of samples began within 24 hours of sample collection. • 3. Information on the individual sample identification, date of collection, time of collection (phase during shift), treatment group and location of sample point were recorded on each sample bottle. • 4. […]

SMILES: CC1(C)C(=O)N(Br)C(=O)N1Br [DBDMH, 1,3-dibromo-5,5-dimethylhydantoin]
- Mean Chill Water Bacteria Reduction (%) ([1]; 50 ppm Cl2 (equivalent)): 99.9999%
- Mean Chill Water Bacteria Reduction (%) ([1]; 100 ppm Cl2 (equivalent)): 99.9999%
- Mean Chill Water Bacteria Reduction (%) ([1]; 150 ppm Cl2 (equivalent)): 99.9999%
- Whole Bird Total Aerobic Bacteria (% Reduction) (total aerobic bacteria; Water pH 7, 10 ppm Cl2 equivalent): 85%
- Whole Bird Total Aerobic Bacteria (% Reduction) (total aerobic bacteria; Water pH 7, 20 ppm Cl2 equivalent): 99%
- Whole Bird Total Aerobic Bacteria (% Reduction) (total aerobic bacteria; Water pH 8, 10 ppm Cl2 equivalent): 82%
- Whole Bird Total Aerobic Bacteria (% Reduction) (total aerobic bacteria; Water pH 8, 20 ppm Cl2 equivalent): 98%
- Whole Bird Total Aerobic Bacteria (% Reduction) (total aerobic bacteria; Water pH 9, 10 ppm Cl2 equivalent): 78%
- Whole Bird Total Aerobic Bacteria (% Reduction) (total aerobic bacteria; Water pH 9, 20 ppm Cl2 equivalent): 96%
- Mean % Reduction From Control ([2]; 10 ppm): 85.8%
- Mean % Reduction From Control ([2]; 20 ppm): 98.8%
